This passage reports GI50 and TGI results from PubChem BioAssay (NCI).

Structures are written as SMILES.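 These data come from cells grown in 96-well plates and exposed to compound for 48 hours at five concentrations. GI50: concentration for 50% inhibition of growth. TGI denotes the concentration required for complete inhibition of growth.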

Among the test systems are COLO 205 colon; EKVX NSCLC; HCC-2998 colon; HCT-15 colon; MALME-3M melanoma; NCI-H460 lung; OVCAR-3 ovarian; RXF 393 renal; SK-OV-3 ovarian; SR leukemia.
Assay in all cases: NCI anticancer screen, dose series, 48 h

As to `COc1ccc(-c2nc(-c3cn(C)c4ncccc34)cs2)cc1`, the GI50 was 29 µM in the assay with COLO 205 colon; 17.4 µM in the assay on EKVX NSCLC; 80.6 µM in the assay with HCC-2998 colon; 25.3 µM in the assay on HCT-15 colon; 22.2 µM with MALME-3M melanoma; 32.9 µM with NCI-H460 lung. Further, the GI50 with OVCAR-3 ovarian was 41.6 µM; with RXF 393 renal it was 55.2 µM; in the assay on SK-OV-3 ovarian, > 100 µM; in the assay on SR leukemia, 9.7 µM. In addition, the TGI in the assay with COLO 205 colon, in the assay with EKVX NSCLC, in the assay with HCC-2998 colon, in the assay with HCT-15 colon, in the assay on MALME-3M melanoma and in the assay with NCI-H460 lung was > 100 µM each time. The TGI in the assay on OVCAR-3 ovarian, with RXF 393 renal, in the assay with SK-OV-3 ovarian and in the assay with SR leukemia was > 100 µM throughout.

Consider `C=C1C(=O)OC2CC3(CO3)C3C(O)C(O)CC3(C)CC12` (stereo not given), for which the TGI in the assay with COLO 205 colon was 81.2 µM; in the assay on EKVX NSCLC it was 37.2 µM; in the assay with HCC-2998 colon, 33.9 µM; in the assay with HCT-15 colon, 34.1 µM; with MALME-3M melanoma, 37.5 µM; in the assay on NCI-H460 lung, > 100 µM. For the same molecule, the TGI was 55.6 µM in the assay on OVCAR-3 ovarian, 31.9 µM with RXF 393 renal, > 100 µM in the assay on SK-OV-3 ovarian and 87.4 µM in the assay on SR leukemia.

On to `O=C(O)c1cc2c(cn1)[nH]c1ccccc12`, for which the TGI with COLO 205 colon, with EKVX NSCLC, in the assay with HCC-2998 colon, in the assay with HCT-15 colon, in the assay on MALME-3M melanoma and in the assay on NCI-H460 lung was > 100 µM throughout. Besides, the TGI with OVCAR-3 ovarian, in the assay on RXF 393 renal, in the assay with SK-OV-3 ovarian and in the assay on SR leukemia was > 100 µM each time.

With `O=C1C=Cc2ccccc2/C1=C/c1[nH]c(=O)[nH]c1O`, the GI50 with COLO 205 colon was 3.59 µM; with EKVX NSCLC it was 2.46 µM; in the assay with HCC-2998 colon, 7.43 µM; in the assay on HCT-15 colon, 7.44 µM; in the assay with MALME-3M melanoma, 4.19 µM; in the assay on NCI-H460 lung, 9.71 µM. Also, the GI50 in the assay with OVCAR-3 ovarian is 2.51 µM; with RXF 393 renal, 2.78 µM; in the assay on SK-OV-3 ovarian, 3.66 µM; in the assay with SR leukemia, 1.67 µM. In addition, the TGI in the assay on COLO 205 colon was 31.9 µM; in the assay on EKVX NSCLC, 25.4 µM; in the assay on HCC-2998 colon, > 100 µM; in the assay on HCT-15 colon it was > 100 µM; in the assay on MALME-3M melanoma, 88.2 µM; in the assay on NCI-H460 lung, 30.9 µM. The TGI worked out at 7.73 µM with OVCAR-3 ovarian, 10.2 µM in the assay on RXF 393 renal, 23.2 µM in the assay on SK-OV-3 ovarian and 7.83 µM in the assay on SR leukemia.

For the molecule `COC(=O)/C(=C\c1c(C)[nH]c2ccccc12)S(=O)(=O)c1ccccc1`, the GI50 in the assay with COLO 205 colon is 7.45 µM; with EKVX NSCLC, 5.04 µM; with HCC-2998 colon, 4.89 µM; with HCT-15 colon, 3.07 µM; in the assay with MALME-3M melanoma it was 7.27 µM; in the assay with NCI-H460 lung, 2.99 µM. In addition, the GI50 in the assay on OVCAR-3 ovarian was 2.7 µM; in the assay on RXF 393 renal, 3.63 µM; with SK-OV-3 ovarian, 9.27 µM; in the assay with SR leukemia, 1.05 µM. In addition, the TGI was 22.1 µM with COLO 205 colon; > 100 µM in the assay with EKVX NSCLC; 17.4 µM in the assay with HCC-2998 colon; 12.8 µM in the assay on HCT-15 colon; 32.6 µM in the assay with MALME-3M melanoma; 9.61 µM in the assay on NCI-H460 lung. The TGI in the assay on OVCAR-3 ovarian is 7.56 µM; with RXF 393 renal, 31.9 µM; in the assay on SK-OV-3 ovarian it was 41.4 µM; in the assay on SR leukemia, > 100 µM.

As to `O=C(C(Br)Br)C(Br)C(Br)c1ccccc1` (stereo not given), the GI50 with COLO 205 colon was 1.65 µM; in the assay with EKVX NSCLC it was 14.5 µM; in the assay on HCC-2998 colon, 16.2 µM; in the assay on HCT-15 colon, 1.96 µM; with MALME-3M melanoma, 3.11 µM; with NCI-H460 lung it was 24.5 µM. Further, the GI50 in the assay on OVCAR-3 ovarian is 2.72 µM; in the assay with RXF 393 renal, 1.7 µM; in the assay with SK-OV-3 ovarian, 17.2 µM; with SR leukemia it was 1.61 µM. In addition, the TGI in the assay with COLO 205 colon is 3.59 µM; in the assay on EKVX NSCLC, 43.9 µM; in the assay on HCC-2998 colon it was 33 µM; with HCT-15 colon, 4.38 µM; with MALME-3M melanoma it was 8.65 µM; in the assay with NCI-H460 lung, 66.4 µM. Further, the TGI was 6.44 µM with OVCAR-3 ovarian, 3.45 µM in the assay on RXF 393 renal, 31.1 µM with SK-OV-3 ovarian and 3.68 µM in the assay on SR leukemia.

In the case of `O=C(NC(=S)Nc1ccc(Cl)cc1)c1ccccc1`, the GI50 in the assay on COLO 205 colon, in the assay with EKVX NSCLC, in the assay on HCC-2998 colon, with HCT-15 colon, with MALME-3M melanoma and in the assay on NCI-H460 lung was > 100 µM each time. Moreover, the GI50 with OVCAR-3 ovarian is > 70.6 µM; in the assay with RXF 393 renal it was > 56.2 µM; in the assay on SK-OV-3 ovarian, > 100 µM; with SR leukemia, > 100 µM. Besides, the TGI in the assay with COLO 205 colon, with EKVX NSCLC, with HCC-2998 colon, with HCT-15 colon, with MALME-3M melanoma and in the assay with NCI-H460 lung was > 100 µM each time. Moreover, the TGI in the assay on OVCAR-3 ovarian, with RXF 393 renal, in the assay with SK-OV-3 ovarian and with SR leukemia was > 100 µM each time.

As to `COc1c(O)ccc2c1CN1CCc3cc4c(cc3C1C2)OCO4` (stereo not given), the TGI with COLO 205 colon was > 100 µM; with EKVX NSCLC, > 100 µM; with HCC-2998 colon, > 100 µM; in the assay with HCT-15 colon, > 100 µM; in the assay with MALME-3M melanoma it was > 100 µM; with NCI-H460 lung it was > 74.7 µM. Moreover, the TGI is > 83.2 µM with OVCAR-3 ovarian, 50.6 µM in the assay with RXF 393 renal, > 100 µM with SK-OV-3 ovarian and > 100 µM in the assay with SR leukemia.

For `CN(C)CCCNC(=O)c1cc(NC(=O)c2cc(NC(=O)c3cc(NC(=O)CCc4c[nH]c5ccccc45)cn3C)cn2C)cn1C`, the GI50 is > 100 µM in the assay with COLO 205 colon; > 100 µM in the assay on EKVX NSCLC; > 100 µM in the assay on HCC-2998 colon; > 100 µM in the assay on HCT-15 colon; 30.4 µM in the assay on MALME-3M melanoma; > 100 µM with NCI-H460 lung. Further, the GI50 in the assay on OVCAR-3 ovarian, in the assay with RXF 393 renal, in the assay on SK-OV-3 ovarian and with SR leukemia was > 100 µM throughout. In addition, the TGI is > 100 µM in the assay on COLO 205 colon; > 100 µM in the assay with EKVX NSCLC; > 100 µM with HCC-2998 colon; > 100 µM with HCT-15 colon; 88.7 µM in the assay with MALME-3M melanoma; > 100 µM in the assay with NCI-H460 lung. The TGI with OVCAR-3 ovarian, in the assay with RXF 393 renal, in the assay with SK-OV-3 ovarian and in the assay on SR leukemia was > 100 µM each time.
